Data taken from patent US10150793B2, “Antagonists of CB1 receptor” (INSERM (Institut National de la Santé et de la Recherche …, priority 2011, dated 2018).

Experiments:
[1] = tested on: TNF-α; experiment: Increase in plasma TNF-alpha induced by LPS; assay type: in vivo, mice; conditions: Mus musculus; mice; compounds 6 mg/kg 15 min before LPS
Method: Trunk blood was collected and centrifuged at 3000 rpm for 15 min at 4° C. Plasma was stored at −80° C. until measurement of TNFα was carried out. Plasma TNFα levels were assessed using an ELISA kit, following the manufacturer's instructions (Fisher Scientific, Catalog #E6473C).
In this example the inventors further analyzed the ability of pregnenolone to inhibit the effects of CB1 activation in the context of inflammation and fibrosis. […] TNF-alpha is one of the cellular responses to inflammatory stimuli more involved in promoting fibrosis.
(§1) Other pregnenolone derivatives (Table 4) for which the metabolism in downstream active steroids was reduced were tested for their ability to inhibit: 1. effects of the THC-induced cannabinoid tetrade (decrease in body temperature and in locomotor activity, (THC 10 mg/kg, compounds 6 mg/kg 15-30 min before THC) that is recognized as a sound method to evaluate the activation of the CB1 receptor; 2. THC-induced increase in food intake a typical effect of CB1 activation (THC between 0.5 and 1 mg/kg, compounds between 2 and 4 mg/kg 30 min before THC); 3. the increase in TNFalpha induced by LPS, another effects typical of CB1 […] (compounds 6 mg/kg 15 min before LPS). For each compound and each test independent groups of animals were used (at least n=6 per compound/per test).

[2] = target: T1, CB1 receptor (Mus musculus, UniProt P47746); experiment: THC-induced cannabinoid tetrad (body temperature, locomotor activity, catalepsy, analgesia); assay type: in vivo, mice; design: tissue Charles River Laboratories (France) (animals); host or cells: living mice, whole animal; conditions: for % Inhibition temperature decrease / % increase in motor activity: mice, THC 10 mg/kg, compounds 6 mg/kg 15-30 min before THC
T1 sequence (P47746 whole entry): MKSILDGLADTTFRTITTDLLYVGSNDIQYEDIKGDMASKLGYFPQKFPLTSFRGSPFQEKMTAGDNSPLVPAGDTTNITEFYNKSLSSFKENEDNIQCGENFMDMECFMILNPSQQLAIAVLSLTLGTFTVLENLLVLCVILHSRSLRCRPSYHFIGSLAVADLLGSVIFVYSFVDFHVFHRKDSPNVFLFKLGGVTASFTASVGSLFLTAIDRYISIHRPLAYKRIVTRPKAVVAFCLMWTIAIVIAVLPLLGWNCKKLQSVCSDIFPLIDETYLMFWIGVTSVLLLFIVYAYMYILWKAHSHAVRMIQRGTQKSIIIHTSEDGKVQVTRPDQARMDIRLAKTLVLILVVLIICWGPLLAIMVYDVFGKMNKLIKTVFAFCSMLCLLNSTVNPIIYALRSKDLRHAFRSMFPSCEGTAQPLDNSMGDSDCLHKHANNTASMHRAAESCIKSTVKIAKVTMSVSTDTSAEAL

[3] = target: T1, CB1 receptor; experiment: THC-induced increase in food intake in mice; assay type: in vivo; design: tissue Charles River Laboratories (France) (animals); host or cells: living mice, whole animal; conditions: mice; THC between 0.5 and 1 mg/kg; compounds between 2 and 4 mg/kg 30 min before THC
Method: Food intake was evaluated by measuring consumption of food in the home cages of the animals. For each animal, 50-100 g of standard laboratory chow (U.A.R., France) was placed in the cleaned home cage. The remaining amount of food was weighted 1 h later and the amount of food consumed calculated.
as §1

[4] = tested on: CHO cells; experiment: Study of metabolism in vitro in CHO cells, steroids in culture medium by GC/MS; conditions: CHO cells
Method: Plasma, brain and culture medium levels of pregnenolone (5-Pregnen-3β-ol-20-one), allopregnanolone (3α-hydroxy-5α-pregnan-20-one), epiallopregnanolone (3β-hydroxy-5α-pregnan-ol-20-one), testosterone, and 5α dihydrotestosterone were determined by GC/MS according to the of estraction, purification and quantification protocol described previously (George O, et al., Biol Psychiatry. 2010 68: 956-63, Vallee M, et al., Anal Biochem. 2000, 287:153-66).
The CHO-K1 cell line (#CCL-61, ATCC-LGC, USA) derived as a subclone from the parental CHO cell line initiated from a biopsy of an adult Chinese hamster ovary was used. The CHO-K1 cells were seeded on 24-well plates (#353047, BD Biosciences, USA) to the appropriate concentration (25×10^4 cells/well) in fresh, antibiotic-free medium constituted by 90% DMEM-Glutamax; (#31966-21, Life technologies, USA) and 10% Fetal Bovine Serum (#10270-106, Life technologies, USA).
In this example the inventors further analyzed the metabolism of pregnenolone derivatives using an in vitro test in CHO cells. These cells derived from the ovary have all the enzymes needed to metabolize pregnenolone in down stream steroids.

Row | SMILES | inhibition in vivo at 6 mg/kg [1] | % Inhibition temperature decrease [2] | % increase in motor activity [2] | % Inhibition of THC-Induced food intake [3] | metabolism in downstream active steroids (Reduced metabolism / Metabolized) [4] | effect on behavioural effects of THC (tetrad) ([2]; AMG 50 mg/kg ip 30 min before THC)
1 | C[C@@H](O)[C@H]1CCC2C3CCC4=C[C@@H](O)CC[C@]4(C)C3CC[C@@]21C (stereo in doubt) [Compound 12, 4-Pregnen-3β,20α-diol] | 81% | 42%, P < 0.004 | 100%, P < 0.16 | ≥100%, P < 0.001 | Reduced metabolism | –
2 | C[C@H](O)[C@@]1(O)CCC2C3CCC4=CC(=O)CC[C@]4(C)C3CC[C@@]21C (stereo in doubt) [Compound 14, 4-Pregnen-17α,20α-diol-3-one] | 65% | 45%, P < 0.001 | 277%, P < 0.004 | 70%, P < 0.06 | Reduced metabolism | –
3 | C[C@@H](O)[C@H]1CCC2C3CCC4=CC(=O)CC[C@]4(C)C3CC[C@@]21C (stereo in doubt) [Compound 18, 4-Pregnen-20α-ol-3-one] | 65% | 25%, P < 0.04 | 146%, P < 0.1 | 30%, P > 0.25 | Reduced metabolism | –
4 | CCC1(c2ccc(N)cc2)CCC(=O)NC1=O (stereo not shown) [AMG, aminoglutethimide, reference compound] | – | – | – | – | – | strongly increased all the behavioural effect of THC
5 | C[C@H](O)[C@H]1CCC2C3CC=C4C[C@@H](O)CC[C@]4(C)C3CC[C@@]21C (stereo partly drawn) [Compound 20, 5-Pregnen-3β,20α-diol] | 65% | 34%, P < 0.04 | 123%, P < 0.04 | 85%, P < 0.03 | Reduced metabolism | –
6 | CC[C@H]1CCC2C3CC=C4C[C@@H](O)CC[C@]4(C)C3CC[C@@]21C (stereo partly shown) [Compound 24, 20-Deoxypregnenolone] | 34% | 25%, P < 0.08 | 33%, P > 0.20 | – | Reduced metabolism | –
7 | CC[C@]1(C(C)=O)CCC2C3CC=C4C[C@@H](O)CC[C@]4(C)C3CC[C@@]21C (stereo partly drawn) [Compound 32, 17α-Ethylpregnenolone] | 64% | 12%, P > 0.25 | −2%, P > 0.25 | – | Reduced metabolism | –
8 | CO[C@H]1CC[C@@]2(C)C(=CCC3C2CC[C@@]2(C)C3CC[C@]2(C)C(C)=O)C1 (stereo partly drawn) [Compound 35, 3β-Methoxy-17α-methylpregnenolone] | 57% | 33%, P < 0.01 | −32%, P > 0.24 | – | Reduced metabolism | –
9 | COC1(C(C)=O)CCC2C3CC=C4C[C@@H](O)CC[C@]4(C)C3CC[C@@]21C (stereo partly shown) [Compound 36, 17-Methoxypregnenolone] | 37% | 54%, P < 0.001 | 326%, P < 0.001 | ≥100%, P < 0.003 | Reduced metabolism | –
10 | CC(=O)C1=CC[C@H]2[C@@H]3CC=C4CCCC[C@]4(C)[C@H]3CC[C@]12C [Compound 39, 5,16-Pregnadien-20-one] | 46% | 56%, P < 0.001 | 309%, P < 0.001 | ≥100%, P < 0.02 | Reduced metabolism | –
11 | CC(=O)[C@@]1(C)CCC2C3CCC4=CC(=O)CC[C@]4(C)C3CC[C@@]21C (stereo partly drawn) [Compound 40, 17α-Methylprogesterone] | 57% | 18%, P < 0.02 | 57%, P < 0.21 | 74%, P < 0.07 | Reduced metabolism | –
12 | CC(=O)[C@H]1CCC2C3CC=C4C[C@@H](OCc5ccccc5)CC[C@]4(C)C3CC[C@@]21C (stereo partly drawn) [Compound 41, 3β-Benzyloxypregnenolone] | 62% | 38%, P < 0.001 | 106%, P < 0.03 | – | Reduced metabolism | –
13 | CC(=O)[C@H]1CC[C@H]2[C@@H]3CC[C@@H]4CC(=O)CC[C@]4(C)[C@H]3CC[C@]12C [Compound 60, 5β-Pregnan-3,20-dione] | 77% | 66%, P < 0.0001 | 70%, P < 0.05 | ≥100%, P < 0.002 | – | –
14 | CC(=O)[C@@]1(Cc2ccccc2)CCC2C3CC=C4C[C@@H](O)CC[C@]4(C)C3CC[C@@]21C (stereo partly drawn) [Compound 65, 17α-Benzylpregnenolone] | 65% | 53%, P < 0.003 | 142%, P < 0.03 | ≥100%, P < 0.001 | Reduced metabolism | –
15 | CNC(C)[C@H]1CC[C@H]2[C@@H]3CC=C4C[C@@H](O)CC[C@]4(C)[C@H]3CC[C@]12C (stereo partly drawn) [Compound 67, 20-Methylamino-5-pregnen-3β-ol] | – | 28%, P < 0.05 | −20%, P > 0.35 | – | Reduced metabolism | –
16 | C=CC[C@]1(C(C)=O)CCC2C3CC=C4C[C@@H](OC)CC[C@]4(C)C3CC[C@@]21C (stereo partly drawn) [Compound 69, 17α-Allyl-3β-methoxypregnenolone] | – | 4%, P > 0.39 | −49%, P > 0.1 | – | Reduced metabolism | –
17 | CO[C@H]1CC[C@@]2(C)C(=CCC3C2CC[C@@]2(C)C3CC[C@]2(Cc2ccccc2)C(C)=O)C1 (stereo partly drawn) [Compound 70, 17α-benzyl-3β-methoxypregnenolone] | – | 8%, P > 0.49 | 2%, P > 0.48 | – | Reduced metabolism | –
